Data taken from article PMC6234229, “The role of loops B and C in determining the potentiation of GABAA receptors by midazolam” (Pharmacology Research & Perspectives, 2018).

Columns and labels:
Test in all cases: Midazolam potentiation of EC10 GABA currents, whole-cell patch clamp, HEK293T
Format in all cases: cell-based
α1β2γ2 GABAA receptor = molecular target: T1, α1β2γ2 GABAA receptor (Homo sapiens, UniProt P14867+P18507+P47870)
T1 construct: expressed in transfected cells; host or cells: HEK293T
T1 sequence (P14867 28-456): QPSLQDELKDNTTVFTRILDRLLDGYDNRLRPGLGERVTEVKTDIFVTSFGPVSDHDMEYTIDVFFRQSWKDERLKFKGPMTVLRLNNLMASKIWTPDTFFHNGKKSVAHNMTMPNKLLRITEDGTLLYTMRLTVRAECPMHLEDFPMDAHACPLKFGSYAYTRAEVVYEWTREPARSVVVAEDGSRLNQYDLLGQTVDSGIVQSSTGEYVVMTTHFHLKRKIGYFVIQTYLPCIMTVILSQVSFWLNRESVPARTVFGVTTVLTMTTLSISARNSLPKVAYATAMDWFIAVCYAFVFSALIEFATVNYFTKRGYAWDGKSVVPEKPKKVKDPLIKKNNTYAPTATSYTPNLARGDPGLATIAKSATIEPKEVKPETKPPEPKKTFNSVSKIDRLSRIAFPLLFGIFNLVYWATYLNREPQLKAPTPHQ
T1 sequence (P47870 26-474 isoform P47870-1 limits assumed): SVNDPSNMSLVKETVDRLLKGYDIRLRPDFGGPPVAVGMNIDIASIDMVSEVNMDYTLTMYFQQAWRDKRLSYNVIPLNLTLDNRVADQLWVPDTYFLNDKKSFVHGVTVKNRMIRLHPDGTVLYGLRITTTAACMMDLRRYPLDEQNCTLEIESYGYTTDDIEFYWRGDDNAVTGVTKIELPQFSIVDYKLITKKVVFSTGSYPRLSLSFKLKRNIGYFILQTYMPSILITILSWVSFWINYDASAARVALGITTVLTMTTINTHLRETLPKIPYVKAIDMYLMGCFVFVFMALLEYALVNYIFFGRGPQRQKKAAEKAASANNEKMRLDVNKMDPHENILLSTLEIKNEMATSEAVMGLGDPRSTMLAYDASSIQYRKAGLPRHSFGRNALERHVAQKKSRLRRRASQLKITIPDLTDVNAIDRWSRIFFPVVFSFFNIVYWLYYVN
T1 sequence (P18507 40-467 isoform P18507-1 limits assumed): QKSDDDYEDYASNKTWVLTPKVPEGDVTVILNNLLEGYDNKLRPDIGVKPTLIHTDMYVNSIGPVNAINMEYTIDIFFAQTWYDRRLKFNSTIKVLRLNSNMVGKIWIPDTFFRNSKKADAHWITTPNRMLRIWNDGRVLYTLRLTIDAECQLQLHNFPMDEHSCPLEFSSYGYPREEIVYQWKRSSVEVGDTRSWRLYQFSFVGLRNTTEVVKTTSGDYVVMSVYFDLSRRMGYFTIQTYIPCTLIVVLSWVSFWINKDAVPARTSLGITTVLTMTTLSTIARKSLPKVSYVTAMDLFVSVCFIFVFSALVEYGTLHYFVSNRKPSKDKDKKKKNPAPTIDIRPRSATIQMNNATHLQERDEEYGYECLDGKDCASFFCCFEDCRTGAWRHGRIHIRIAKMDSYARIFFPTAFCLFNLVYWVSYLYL
From the text: (§1) Human (Homo sapiens) GABAA subunits (α1‐6, β2, γ2s) were subcloned into pcDNA3.1+ vectors with a cytomegalovirus (CMV) promoter. The hβ2 and hα3 sequences were humanized rat (Rattus norvegicus) cDNA with amino acid substitutions made to match the human protein sequence. The α1‐3, α5, β2, and γ2s subunits were a generous gift from Neil L. Harrison (Columbia University Medical Center, NY). The α4 subunit was obtained from GenScript (Piscataway, NJ), and the α6 subunit was a generous gift from Robert L. McDonald (Vanderbilt University, TN). All point mutations (listed in Figure 1C) were introduced using the QuikChange Lightening site‐directed mutagenesis kit (Agilent Technologies, Santa Clara, CA) according to the manufacturer's instructions and were confirmed by sequencing (Eurofins MWG Operon, Louisville, KY).
(§2) Human embryonic kidney cells containing the SV40 T‐antigen (HEK293T) were acquired from American Type Culture Collection (ATCC®, Manassas, VA), catalogue number, CRL3216. HEK293T cells were maintained at 37°C and 5% CO2 in Eagle Minimum Essential Medium (MEM) supplemented with 5% fetal bovine serum (Atlanta Biologicals Inc., Flowery Branch, GA), 40 μM L‐glutamine, 100 U/mL penicillin and 0.1 mM streptomycin. Cells were passaged regularly when they reached 70% confluency using trypsin. Cells were not passaged more than 22 times. New cells were revived from frozen stocks at passage 2‐4. Cells used for in vitro electrophysiology experiments were grown on poly‐D‐lysine‐coated glass coverslips (No.2, VWR, Radnor, PA) and transfected with X‐tremeGENE (Roche Diagnostics, Indianapolis, IN) with the desired receptor subunit cDNAs at a 1:1:1 ratio to express αxβ2γ2s receptors (2 μg total cDNA) and with 0.5 μg green fluorescent protein (GFP) as an expression marker. The γ2s incorporation into receptors was tested with zinc inhibition assays regularly.24 Patch clamp experiments were performed on cells at 24‐72 hours post‐transfection. All experiments were performed at 22°C. Experiments consisted of at least five cells recorded per day from at least two transfections across 3‐4 days to control for cell health and transfection efficiency. At least three cells expressing wild‐type receptors were recorded on days that mutant receptors were tested to provide a time‐matched expression control. All reagents were purchased from Sigma‐Aldrich (St. Louis, MO) unless otherwise stated.
(§3) Extracellular solution contained 161 mM NaCl, 3 mM KCl, 1 mM MgCl2, 1.5 mM CaCl2, 10 mM HEPES, and 6 mM D‐glucose, adjusted to pH 7.4 with NaOH (320‐330 mOsm). […] The perfusion system was controlled by protocols written in pClamp 9 (Molecular Devices, LLC., Sunnyvale, CA). Whole‐cell currents were recorded at ‐60 mV, filtered at 100 Hz and sampled at 200 Hz with a MultiClamp 700B amplifier (Molecular Devices, LLC) and DigiData 1322A (Molecular Devices, LLC) digitizer. […] Cells were recorded with the midazolam protocol no more than two times to avoid desensitization and incomplete washout or irreversible modulation.
(§4) Recordings were analyzed using MATLAB (Math Works, Inc., Natick, MA). […] The maximum peak current, EC50 and Hill coefficient were estimated for assays from each cell. When Hill parameters are estimated from whole‐cell recordings, the changes in the parameters across receptor conditions can be ascribed to the following changes in receptor physiology. Changes in maximum current can be due to changes in the single‐channel conductance or the rate of desensitization. Changes in cell surface receptor expression can cause minor changes in maximum current, but are unlikely to occur in the time course of our experimental protocol. […] More often minor changes in the Hill coefficient are attributed to the altered homogeneity in the receptor population expressed by the HEK293T cell. For example, a shallower Hill coefficient could be caused by a shift in the population of receptors from mostly αβγ receptors to a combination of both αβ and αβγ receptors.

[1] = molecular target: T2, α2(T162P)β2γ2 GABAA receptor (Homo sapiens, UniProt P18507+P47869+P47870, T190P)
T2 construct: expressed in transfected cells; host or cells: HEK293T
T2 sequence (P47869 29-451 T190P): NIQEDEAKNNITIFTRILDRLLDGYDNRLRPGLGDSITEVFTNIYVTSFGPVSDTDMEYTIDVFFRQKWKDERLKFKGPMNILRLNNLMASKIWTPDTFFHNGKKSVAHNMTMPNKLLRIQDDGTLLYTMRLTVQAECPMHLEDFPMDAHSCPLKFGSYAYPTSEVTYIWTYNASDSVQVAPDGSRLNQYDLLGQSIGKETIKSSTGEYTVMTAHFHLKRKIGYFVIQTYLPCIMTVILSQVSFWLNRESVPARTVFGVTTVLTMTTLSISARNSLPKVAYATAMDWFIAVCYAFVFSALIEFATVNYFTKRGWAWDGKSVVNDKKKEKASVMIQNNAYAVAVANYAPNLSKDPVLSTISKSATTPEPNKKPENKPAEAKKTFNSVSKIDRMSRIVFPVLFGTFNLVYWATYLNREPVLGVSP
T2 sequence (P47870 25-512 limits assumed): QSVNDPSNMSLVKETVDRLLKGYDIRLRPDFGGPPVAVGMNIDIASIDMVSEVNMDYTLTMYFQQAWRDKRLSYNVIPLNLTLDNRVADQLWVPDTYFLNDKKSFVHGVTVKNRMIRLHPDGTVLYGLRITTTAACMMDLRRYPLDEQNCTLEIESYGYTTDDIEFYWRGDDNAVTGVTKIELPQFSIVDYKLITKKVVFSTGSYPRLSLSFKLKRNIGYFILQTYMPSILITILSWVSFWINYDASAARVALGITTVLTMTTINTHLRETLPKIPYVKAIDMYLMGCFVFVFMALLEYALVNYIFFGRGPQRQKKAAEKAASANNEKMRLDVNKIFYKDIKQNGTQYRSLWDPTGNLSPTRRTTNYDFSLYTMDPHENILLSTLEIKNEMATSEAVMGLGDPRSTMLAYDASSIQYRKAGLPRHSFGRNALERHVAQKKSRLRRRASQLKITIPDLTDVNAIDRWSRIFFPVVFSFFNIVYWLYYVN
T2 sequence (P18507 40-467 isoform P18507-1 limits assumed, stated change not applied): as the sequence (P18507 40-467 isoform P18507-1 limits assumed) above
From the text: as §1, §2, §3, §4

[2] = molecular target: T3, α4(P161T)β2γ2 GABAA receptor (Homo sapiens, UniProt P18507+P47870+P48169, P196T); details: for Midazolam potentiation (%): α4(P161T)
T3 construct: expressed in transfected cells; host or cells: HEK293T
T3 sequence (P48169 36-554 P196T): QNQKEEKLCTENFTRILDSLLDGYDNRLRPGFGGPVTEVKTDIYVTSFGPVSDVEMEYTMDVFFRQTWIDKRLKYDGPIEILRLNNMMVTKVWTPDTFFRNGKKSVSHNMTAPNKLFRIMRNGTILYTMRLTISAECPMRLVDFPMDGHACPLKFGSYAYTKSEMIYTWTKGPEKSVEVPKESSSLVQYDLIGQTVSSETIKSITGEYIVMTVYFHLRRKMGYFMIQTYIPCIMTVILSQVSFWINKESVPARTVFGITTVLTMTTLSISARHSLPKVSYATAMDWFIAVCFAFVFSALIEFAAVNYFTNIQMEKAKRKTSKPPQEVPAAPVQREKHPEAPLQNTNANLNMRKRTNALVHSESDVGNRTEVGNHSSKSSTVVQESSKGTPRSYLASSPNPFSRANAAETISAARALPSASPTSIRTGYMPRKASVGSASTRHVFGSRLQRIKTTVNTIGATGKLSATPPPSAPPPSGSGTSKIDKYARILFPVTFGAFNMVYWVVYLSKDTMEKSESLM
T3 sequence (P47870 26-474 isoform P47870-1 limits assumed, stated change not applied): as the sequence (P47870 26-474 isoform P47870-1 limits assumed) above
T3 sequence (P18507 40-467 isoform P18507-1 limits assumed, stated change not applied): as the sequence (P18507 40-467 isoform P18507-1 limits assumed) above
From the text: as §1, §2, §3, §4

α4β2γ2 GABAA receptor = molecular target: T4, α4β2γ2 GABAA receptor (Homo sapiens, UniProt P18507+P47870+P48169); details: for Midazolam potentiation (%): α4β2γ2
T4 construct: expressed in transfected cells; host or cells: HEK293T
T4 sequence (P48169 36-554): as the sequence (P48169 36-554 P196T) above, with T161P counted along it
T4 sequence (P47870 26-474 isoform P47870-1 limits assumed): as the sequence (P47870 26-474 isoform P47870-1 limits assumed) above
T4 sequence (P18507 40-467 isoform P18507-1 limits assumed): as the sequence (P18507 40-467 isoform P18507-1 limits assumed) above
From the text: as §1, §2, §3, §4

[3] = molecular target: T5, α5(H105R)β2γ2 GABAA receptor (Homo sapiens, UniProt P18507+P31644+P47870, H136R)
T5 construct: expressed in transfected cells; host or cells: HEK293T
T5 sequence (P31644 32-462 H136R): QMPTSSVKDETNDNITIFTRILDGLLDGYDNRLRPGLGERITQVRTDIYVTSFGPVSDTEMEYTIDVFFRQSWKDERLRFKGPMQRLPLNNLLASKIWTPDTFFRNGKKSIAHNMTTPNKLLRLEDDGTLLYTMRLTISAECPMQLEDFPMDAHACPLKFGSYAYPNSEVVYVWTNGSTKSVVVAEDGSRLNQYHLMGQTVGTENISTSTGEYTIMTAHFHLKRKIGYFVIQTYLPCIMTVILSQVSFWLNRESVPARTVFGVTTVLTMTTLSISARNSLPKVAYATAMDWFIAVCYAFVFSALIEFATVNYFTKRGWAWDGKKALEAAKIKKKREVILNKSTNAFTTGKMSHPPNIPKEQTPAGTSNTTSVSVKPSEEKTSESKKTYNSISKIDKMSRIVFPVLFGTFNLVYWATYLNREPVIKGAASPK
T5 sequence (P47870 26-474 isoform P47870-1 limits assumed, stated change not applied): as the sequence (P47870 26-474 isoform P47870-1 limits assumed) above
T5 sequence (P18507 40-467 isoform P18507-1 limits assumed, stated change not applied): as the sequence (P18507 40-467 isoform P18507-1 limits assumed) above
From the text: as §1, §2, §3, §4

[4] = molecular target: T6, α5(P166T)β2γ2 GABAA receptor (Homo sapiens, UniProt P18507+P31644+P47870, P197T)
T6 construct: expressed in transfected cells; host or cells: HEK293T
T6 sequence (P31644 32-462 P197T): as the sequence (P31644 32-462 H136R) above, with R105H, P166T counted along it
T6 sequence (P47870 26-474 isoform P47870-1 limits assumed, stated change not applied): as the sequence (P47870 26-474 isoform P47870-1 limits assumed) above
T6 sequence (P18507 40-467 isoform P18507-1 limits assumed, stated change not applied): as the sequence (P18507 40-467 isoform P18507-1 limits assumed) above
From the text: as §1, §2, §3, §4

[5] = molecular target: T7, α6(N204I)β2γ2 GABAA receptor (Homo sapiens, UniProt P18507+P47870+Q16445, N223I)
T7 construct: expressed in transfected cells; host or cells: HEK293T
T7 sequence (Q16445 20-453 N223I): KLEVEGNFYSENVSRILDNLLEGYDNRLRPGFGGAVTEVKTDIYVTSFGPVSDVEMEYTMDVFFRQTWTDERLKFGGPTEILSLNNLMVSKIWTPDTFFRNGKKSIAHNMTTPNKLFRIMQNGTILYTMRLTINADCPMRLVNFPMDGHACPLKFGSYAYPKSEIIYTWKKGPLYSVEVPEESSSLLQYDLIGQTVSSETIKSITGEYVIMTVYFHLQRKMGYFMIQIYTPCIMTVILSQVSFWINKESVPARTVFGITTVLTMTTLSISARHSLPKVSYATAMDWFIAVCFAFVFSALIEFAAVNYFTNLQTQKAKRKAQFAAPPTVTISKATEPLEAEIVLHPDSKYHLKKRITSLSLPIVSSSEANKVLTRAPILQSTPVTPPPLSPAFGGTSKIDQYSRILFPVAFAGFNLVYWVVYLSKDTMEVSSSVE
T7 sequence (P47870 26-474 isoform P47870-1 limits assumed, stated change not applied): as the sequence (P47870 26-474 isoform P47870-1 limits assumed) above
T7 sequence (P18507 40-467 isoform P18507-1 limits assumed, stated change not applied): as the sequence (P18507 40-467 isoform P18507-1 limits assumed) above
From the text: as §1, §2, §3, §4

For `Cc1ncc2n1-c1ccc(Cl)cc1C(c1ccccc1F)=NC2` [midazolam], the EC50 (α1β2γ2 GABAA receptor) was 71.4 ± 5.8 nM, the “Midazolam potentiation (%)” value (α1β2γ2 GABAA receptor; 10 nM MDZ + EC10 GABA, α1β2γ2) was 22.06 ± 3.46% and the “Midazolam potentiation (%)” value (α1β2γ2 GABAA receptor; 50 nM MDZ + EC10 GABA, α1β2γ2) was 71.67 ± 6.40%. For the same compound, the “Midazolam potentiation (%)” value (α1β2γ2 GABAA receptor; 100 nM MDZ + EC10 GABA, α1β2γ2) was 145.94 ± 13.37%, the “Midazolam potentiation (%)” value (α1β2γ2 GABAA receptor; 500 nM MDZ + EC10 GABA, α1β2γ2) was 201.94 ± 16.80% and the “Midazolam potentiation (%)” value (α1β2γ2 GABAA receptor; 1000 nM MDZ + EC10 GABA, α1β2γ2) was 215.35 ± 26.71%. For the same compound, the “Max potentiation (%)” value (α1β2γ2 GABAA receptor; α1β2γ2, Hill fit, midazolam 10-1000 nM + EC10 GABA) was 203.0 ± 17.6%, the Hill coefficient (α1β2γ2 GABAA receptor; α1β2γ2, midazolam Hill fit) was 1.765 ± 0.165 and the EC50 [1] was 42 ± 2.86 nM. The “Midazolam potentiation (%)” value ([1]; 10 nM MDZ + EC10 GABA, α2(T162P)) was 26.45 ± 4.06%, the “Midazolam potentiation (%)” value ([1]; 50 nM MDZ + EC10 GABA, α2(T162P)) was 81.24 ± 9.43% and the “Midazolam potentiation (%)” value ([1]; 100 nM MDZ + EC10 GABA, α2(T162P)) was 129.24 ± 14.94%. For the same compound, the “Midazolam potentiation (%)” value ([1]; 500 nM MDZ + EC10 GABA, α2(T162P)) was 156.21 ± 15.70%, the “Midazolam potentiation (%)” value ([1]; 1000 nM MDZ + EC10 GABA, α2(T162P)) was 150.36 ± 15.00% and the “Max potentiation (%)” value ([1]; α2(T162P), Hill fit, midazolam 10-1000 nM + EC10 GABA) was 158.2 ± 15.8%. The Hill coefficient ([1]; α2(T162P), midazolam Hill fit) was 1.393 ± 0.073, the “Midazolam potentiation (%)” value ([2]; 10 nM MDZ + EC10 GABA) was 13.22 ± 3.76% and the “Midazolam potentiation (%)” value ([2]; 50 nM MDZ + EC10 GABA) was 10.31 ± 5.64%. The “Midazolam potentiation (%)” value ([2]; 100 nM MDZ + EC10 GABA) was 14.28 ± 5.87%, the “Midazolam potentiation (%)” value ([2]; 500 nM MDZ + EC10 GABA) was 21.94 ± 5.61% and the “Midazolam potentiation (%)” value ([2]; 1000 nM MDZ + EC10 GABA) was 26.43 ± 9.72%. For the same compound, the “responsiveness to midazolam potentiation” value ([2]; α4(P161T)β2γ2) was “failed to confer midazolam responsiveness”, the “Midazolam potentiation (%)” value (α4β2γ2 GABAA receptor; 10 nM MDZ + EC10 GABA) was 10.98 ± 3.61% and the “Midazolam potentiation (%)” value (α4β2γ2 GABAA receptor; 50 nM MDZ + EC10 GABA) was 13.30 ± 4.65%. The “Midazolam potentiation (%)” value (α4β2γ2 GABAA receptor; 100 nM MDZ + EC10 GABA) was 15.15 ± 4.85%, the “Midazolam potentiation (%)” value (α4β2γ2 GABAA receptor; 500 nM MDZ + EC10 GABA) was 15.98 ± 5.42% and the “Midazolam potentiation (%)” value (α4β2γ2 GABAA receptor; 1000 nM MDZ + EC10 GABA) was 17.89 ± 4.82%. For the same compound, the “responsiveness to midazolam potentiation” value (α4β2γ2 GABAA receptor; wildtype α4β2γ2) was “no notable midazolam potentiation”, the “responsiveness to midazolam potentiation” value [3] was “abolished the ability of receptors to respond to midazolam potentiation” and the “Midazolam potentiation (%)” value ([3]; 10 nM MDZ + EC10 GABA) was 8.59 ± 4.39%. The “Midazolam potentiation (%)” value ([3]; 50 nM MDZ + EC10 GABA) was 7.73 ± 4.67%, the “Midazolam potentiation (%)” value ([3]; 100 nM MDZ + EC10 GABA) was 8.00 ± 4.85% and the “Midazolam potentiation (%)” value ([3]; 500 nM MDZ + EC10 GABA) was 5.65 ± 3.99%. For the same compound, the “Midazolam potentiation (%)” value ([3]; 1000 nM MDZ + EC10 GABA) was 8.17 ± 4.66%, the EC50 [4] was 53.3 ± 5.54 nM and the “Midazolam potentiation (%)” value ([4]; 10 nM MDZ + EC10 GABA, α5(P166T)) was 13.32 ± 1.68%. The “Midazolam potentiation (%)” value ([4]; 50 nM MDZ + EC10 GABA, α5(P166T)) was 54.02 ± 5.66%, the “Midazolam potentiation (%)” value ([4]; 100 nM MDZ + EC10 GABA, α5(P166T)) was 106.37 ± 15.09% and the “Midazolam potentiation (%)” value ([4]; 500 nM MDZ + EC10 GABA, α5(P166T)) was 134.76 ± 21.59%. For the same compound, the “Midazolam potentiation (%)” value ([4]; 1000 nM MDZ + EC10 GABA, α5(P166T)) was 141.51 ± 25.59%, the “Max potentiation (%)” value ([4]; α5(P166T), Hill fit, midazolam 10-1000 nM + EC10 GABA) was 140.7 ± 23.7% and the Hill coefficient ([4]; α5(P166T), midazolam Hill fit) was 3.661 ± 1.897. For the same compound, the “responsiveness to midazolam potentiation” value [5] was “failed to convey any notable midazolam potentiation”, the “Midazolam potentiation (%)” value ([5]; 10 nM MDZ + EC10 GABA) was 11.98 ± 4.42% and the “Midazolam potentiation (%)” value ([5]; 50 nM MDZ + EC10 GABA) was 19.07 ± 5.84%. For the same compound, the “Midazolam potentiation (%)” value ([5]; 100 nM MDZ + EC10 GABA) was 25.21 ± 7.32%, the “Midazolam potentiation (%)” value ([5]; 500 nM MDZ + EC10 GABA) was 25.85 ± 6.62% and the “Midazolam potentiation (%)” value ([5]; 1000 nM MDZ + EC10 GABA) was 19.31 ± 7.32%.
